Data set [1] deals with S. epidermidis ATCC 14990. Nature of the data set: microbe, parasite or virus in culture. The data set is classed as cell-based, Staphylococcus epidermidis. To be noted: ~1 × 10^5 cells/mL, starting 200 μg/mL. The method, then: (§1) For antimicrobial activity determination, Gram-positive strains (Staphylococcus aureus 209P, ATCC 29213, ATCC 25923, ATCC 43300 [MRSA], S. epidermidis ATCC 14990) were used. Experiments were conducted at bacterial concentrations of (0.5–1) × 10^5 cells/mL. […] Briefly, overnight cultures in Mueller-Hinton broth (MHB, HiMedia, Mumbai, Maharashtra, India) were diluted 1:100 into fresh MHB and incubated at 37 °C for 3 h. Cultures were then adjusted to ~1 × 10^5 cells/mL (by OD600) and used as an inoculate. Peptide stocks (10 mg/mL in water) were prepared in MHB to achieve a starting concentration of 200 μg/mL and subsequently diluted twofold.

In data set [2] the test system is S. aureus ATCC 43300 (MRSA). Nature of the data set: microbe, parasite or virus in culture. Type of data set: cell-based, Staphylococcus aureus. The method, then:
as §1

Data set [3] concerns S. aureus ATCC 29213 (MSSA). Description: microbe, parasite or virus in culture. The data set is classed as cell-based, Staphylococcus aureus. Conditions: two-fold serial dilution in MHB, ~1 × 10^5 cells/mL, starting 200 μg/mL. The method, then: as §1
Data set [4] deals with S. aureus ATCC 25923. Description: microbe, parasite or virus in culture. The data set is classed as cell-based, Staphylococcus aureus. To be noted: ~1 × 10^5 cells/mL, starting 200 μg/mL. The method, then: as §1
In data set [5] the test system is S. aureus 209P. Nature of the data set: MIC, two-fold serial dilution in Mueller-Hinton broth. Type of data set: cell-based, Staphylococcus aureus. To be noted: conditions identical to those of Figure 2. The method, then: as §1
The mechanism was investigated using the S. aureus 209P strain.

The test system of data set [6] is E. coli, ATCC 25922. Nature of the data set: microbe, parasite or virus in culture. The data set is classed as cell-based.
Data set [7] has as its system S. aureus 209P cells. Description: Confocal microscopy of plasma membrane permeability to BCECF and PI. The data set is classed as cell-based, Staphylococcus aureus. To be noted: 25 µM peptide, 15 min, Mueller–Hinton broth, CLSM. The method, then:
Confocal laser scanning microscopy (CLSM) measurements were performed with an SP2 confocal inverted microscope (Leica Microsystems GmbH, Wetzlar, Germany) using the water-immersion 63×, 1.2 NA HCX PL APO objective. A typical voxel size was 0.15 × 0.15 × 0.9 μm. Excitation wavelengths were 561 nm for propidium iodide (PI) and 488 nm for 2′,7′-Bis-(2-carboxyethyl)-5-(and-6)-carboxyfluorescein (BCECF) (Sigma-Aldrich, MO, USA). Laser power was 3–10 μW the sample. Fluorescence was detected in the 500–550 and 650–700 nm ranges for BCECF and PI, respectively. S. aureus 209P cells were preincubated with acetoxymethyl ester of BCECF (10 μM) in Hank’s balanced salt solution for 30 min at 37 °C, exposed to PI (15 μM) and peptide XIII (25 μM) for 15 min in Mueller–Hinton broth, centrifuged gently in order to concentrate the cells (1600× g, 5 min, 20 °C), and examined by CLSM. Control cells were subjected to the same procedures but without addition of the peptide.

The subject of data set [8] is E. coli, ΔtolC. Nature of the data set: microbe, parasite or virus in culture. The data set is classed as cell-based.
For data set [9], the system named is human red blood cells. Nature of the data set: Hemolytic activity. Conditions: for Hemolysis (%): fresh human capillary blood, two independent experiments; for Hemolytic activity (in words): human red blood cells, up to 100 μM. The data set is classed as cell-based. The method, then:
Hemolytic activity was assessed using fresh capillary blood from a human volunteer, as described in [28]. Each peptide’s hemolytic activity was tested in two independent experiments.

Data set [10] deals with E. coli, lptD. Description: microbe, parasite or virus in culture. Type of data set: cell-based.
The target in data set [11] is His12 (position 12, KFAGKHL----). Description: NMR.
Where [12] appears, read: two-fold serial dilution in MHB, values in Figure 2.
Setting [13] is: S. aureus ATCC 43300 (MRSA), two-fold serial dilution in MHB, ~1 × 10^5 cells/mL, starting 200 μg/mL, Figure 2.
Where [14] appears, read: two-fold serial dilution in MHB, Figure 2.

≈ marks a conversion by molar mass, not a printed value. Entries after “also recorded” stand apart in the source; their conditions may differ. Like-named read-outs stand apart in the source and are kept apart here. Ends that are not written are not given here.

With GWMKALKEHVEKLNKTGKLK [I], the MIC in [1] (setting [12]), in data set [2] (setting [13]), in data set [3] (Figure 2) and in [4] (setting [14]) was more than 200.00 µg/mL each time.
As to LSLMKFAGKHLAKH-NH2 [VIII], the MIC in data set [1] (setting [12]), in data set [2] (setting [13]), in [3] (Figure 2) and in [4] (setting [14]) was more than 200.00 µg/mL throughout.
On to SLMKFAGKHLAKHQLSKMG-NH2 [VI], for which the MIC in data set [1] (setting [12]), in data set [2] (setting [13]), in data set [3] (Figure 2) and in [4] (setting [14]) was more than 200.00 µg/mL each time.
Turning to `CN[C@H](CC(C)C)C(=O)N[C@H]1C(=O)N[C@@H](CC(N)=O)C(=O)N[C@H]2C(=O)N[C@H]3C(=O)N[C@H](C(=O)N[C@H](C(=O)O)c4cc(O)cc(O)c4-c4cc3ccc4O)[C@H](O)c3ccc(c(Cl)c3)Oc3cc2cc(c3O[C@@H]2O[C@H](CO)[C@@H](O)[C@H](O)[C@H]2O[C@H]2C[C@](C)(N)[C@H](O)[C@H](C)O2)Oc2ccc(cc2Cl)[C@H]1O` [vancomycin, reference compound], the MIC turned out to be 0.78 µg/mL (≈ 0.538 µM) in [1] (Staphylococcus epidermidis, ATCC14990, two-fold serial dilution in MHB, values in Figure 2, read-out: MIC); 1.56 µg/mL (≈ 1.08 µM) in data set [2] (Staphylococcus aureus); 0.78 µg/mL (≈ 0.538 µM) in [3] (Staphylococcus aureus, Figure 2, read-out: MIC); 3.12 µg/mL (≈ 2.15 µM) in data set [4] (Staphylococcus aureus, ATCC25923, two-fold serial dilution in MHB, Figure 2, read-out: MIC).
Turning to ILADLIAKLKVRAA-NH2 [V], the MIC in [1] (setting [12]), in data set [2] (setting [13]), in data set [3] (Figure 2) and in [4] (setting [14]) was more than 200.00 µg/mL in each case.
Take FMKRLISKGKIGKEKLVAF [II]: the MIC in [1] (setting [12]), in [2] (setting [13]), in [3] (Figure 2) and in [4] (setting [14]) was more than 200.00 µg/mL in each case.
As for FWFKALKSVAKFIA-NH2 [XIII], the MIC in [5] came out at 6.25 µg/mL; in [6], 50 µg/mL; in data set [1] (setting [12]) it was 6.25 µg/mL; in data set [2] (setting [13]), 6.25 µg/mL; in data set [3] (Figure 2), 3.12 µg/mL; in [4] (setting [14]), 6.25 µg/mL. The MIC came to 50 µg/mL in data set [8] (E. coli, ΔtolC) and 100 µg/mL in [10] (E. coli, lptD). Besides, the “entry of propidium iodide (PI) into cells” value in [7] is given as “PI penetrates into cells”. Moreover, the “leakage of BCECF from cells” value in data set [7] was “is released from them”. Further, the “Hemolysis (%)” value in data set [9] (25 μM peptide), in data set [9] (50 μM peptide) and in data set [9] (100 μM peptide) was 0% in each case. Also, in data set [9], the “Hemolytic activity (in words)” value is given as “minimal hemolytic activity; also recorded: lack of hemolysis”.
With `CC1(C)S[C@@H]2[C@H](NC(=O)[C@H](N)c3ccccc3)C(=O)N2[C@H]1C(=O)O` [Ampicillin, reference compound], the MIC in data set [6] (Escherichia coli, ATCC25922, read-out: MIC) is 3.12 µg/mL (≈ 8.94 µM).
For the molecule IWLSLMKFAGKHL [X], the MIC in [1] (setting [12]), in data set [2] (setting [13]), in data set [3] (Figure 2) and in data set [4] (setting [14]) was more than 200.00 µg/mL in each case.
Regarding KFAGKHLAKH-NH2 [XII], the MIC in data set [1] (setting [12]), in data set [2] (setting [13]), in data set [3] (Figure 2) and in data set [4] (setting [14]) was more than 200.00 µg/mL each time.
Regarding LMKFAGKHLAKH-NH2 [XI], the MIC in [1] (setting [12]), in [2] (setting [13]), in [3] (Figure 2) and in data set [4] (setting [14]) was more than 200.00 µg/mL throughout.
Turning to LSLMKFAGKHLAKHQL [VII], the MIC is more than 200 µg/mL in data set [6]; 25.00 µg/mL in [1] (setting [12]); more than 200.00 µg/mL in data set [2] (setting [13]); more than 200.00 µg/mL in data set [3] (Figure 2); more than 200.00 µg/mL in data set [4] (setting [14]); more than 200 µg/mL in data set [8] (E. coli, ΔtolC). In data set [10] (E. coli, lptD), this molecule gave an MIC of 12.5 µg/mL.
On to AIWSSAMQFFIKHLKK [III], for which the MIC in data set [1] (setting [12]), in data set [2] (setting [13]), in data set [3] (Figure 2) and in data set [4] (setting [14]) was more than 200.00 µg/mL in each case.
Take “IWWTAVKFFGKQL-NH2 [XV, 13-residue fragment of Lycosin 9o from Lycosa hispanica; negative control in hemolysis]”: the MIC in data set [1] (setting [12]), in data set [2] (setting [13]), in data set [3] (Figure 2) and in data set [4] (setting [14]) was more than 200.00 µg/mL in each case. Further, the “Hemolysis (%)” value in data set [9] (25 μM peptide), in [9] (50 μM peptide) and in data set [9] (100 μM peptide) was 0% each time. In [9], the “Hemolytic activity (in words)” value was “lack of hemolytic activity”.
For IIWLPVLKFLASHV-NH2 [XIV], the MIC in data set [6] is 200 µg/mL; in [1] (setting [12]) it was 6.25 µg/mL; in data set [2] (setting [13]), 12.50 µg/mL; in [3] (Figure 2) it was 12.50 µg/mL; in [4] (setting [14]), 25.00 µg/mL; in data set [8] (E. coli, ΔtolC) it was more than 200 µg/mL. In data set [10] (E. coli, lptD), the MIC was found to be 100 µg/mL. Further, the “Hemolysis (%)” value in data set [9] (25 μM peptide) came to 0%; in data set [9] (50 μM peptide), 60%; in data set [9] (100 μM peptide), 100%.
In the case of `CCn1cc(C(=O)O)c(=O)c2ccc(C)nc21` [Nalidixic acid, reference compound], the MIC in data set [8] (Escherichia coli) and in [10] (Escherichia coli) was 1.56 µg/mL (≈ 6.72 µM) each time.
For orientation: pKa means the negative logarithm of the acid dissociation constant. Turning to IWLSLMKFAGKHL [Peptide IX (N-terminal 13-residue fragment of Lycosin 9i) (Lycosa hispanica)], the pKa in data set [11] (30 °C, free peptide in aqueous solution, disordered (random coil), 1 mM) came out at 6.02±0.05; in data set [11] (45 °C, bound to anionic LPPG micelles, structured (helix-like Ile1-Met6, α-helix Lys7-Leu13)) it was 7.89 ± 0.24.

Values taken from article PMC12736563, “NMR Unveils Activity Mechanism of Linear Spider Venom Peptide Fragments Selected by Neural Networks Against Staphylococci Including MRSA” (Pharmaceutics, 2025).
